# Experimental data: patent US12251370B2, “Small molecule inhibitors of the BfrB:Bfd interaction” (BOARD OF SUPERVISORS OF LOUISIANA STATE UNIVERSITY AND …, priority 2018, dated 2025)
# Where “and” joins values, the source holds several entries; their conditions need not be identical. Equal entries are not always repeated. Where two headings read alike, the source gives them in different places.
# B1: Bfd: bacterioferritin-associated ferredoxin, cognate partner of the iron storage protein BfrB (protein, UniProt Q9HY80 1-73, looked up)
# Bacterioferritin-associated …: MYVCLCQGVTDNQIRDAIYEGCCSYREVREATGVGTQCGKCACLAKQVVRETLNDLQSAQPVPAFGTTAFVAA
# What was measured:
# P. aeruginosa [1] = assay: Growth curves and IC50 determination in P. aeruginosa; type: cell-based, Pseudomonas aeruginosa (PAO1); settings: M63 media, growth % from OD600 at 13 h, three independent experiments
# Protocol: (§1) Pre-cultures (5 mL LB media) were grown for 12 h at 37° C. and 220 rpm in 50 mL conical tubes (VWR International, PA) covered with an air permeable membrane. The cells were then centrifuged at 4,000 rpm for 10 min, the resultant cell pellets washed twice in M63 media and then diluted in M63 media to OD600=0.01. Stock solutions (100 mM) of analog in DMSO were prepared weekly and stored at 4° C. Prior to initiating experiments in 96 well plates, the analog stock solution was serially diluted to make 10 mM or 1 mM working solutions in DMSO. A small volume of the appropriate working solution was transferred to a glass vial, diluted with DMSO to 30 μL, and then diluted to a final volume of 1.5 mL with pre-culture cell suspension with an OD600=0.01. The resultant cell suspension (200 μL) was transferred to a clear-bottom polystyrene 96 well plate (VWR), and incubated at 35° C. and 205 cpm for 13 h in an Epoch 2 microplate spectrophotometer (Biotek Instruments, Inc., Vermont). The growth curve in the presence of Ciprofloxacin was obtained in the same plate. […] MIC determinations were carried out using standard broth microdilution methods in 48 well plates and modified M63 media. Cells were incubated at 35° C.
# A. baumannii [2] = assay: Growth curves and IC50 determination in A. baumannii; type: cell-based, Acinetobacter baumannii (AB5075); settings: AB5075, modified M63 media, 48 well-plates
# Protocol: as §1
# This idea was tested with A. baumanni AB5075, a highly virulent isolate, which has been proposed as a model strain for the evaluation of pathogenesis and antimicrobial treatments.^66.
# A. baumannii [3] = assay: MIC determination by broth microdilution in A. baumannii; type: cell-based, Acinetobacter baumannii (AB5075); settings: modified M63 media, 35° C.; for MIC: Acinetobacter baumannii
# Protocol: as §1, with “M63” left out, “A small volume of the appropriate working solution was transferred to a glass vial, diluted with DMSO to 30 μL, and then diluted to a final volume of 1.5 mL with pre-culture cell suspension with an OD600=0.01.” left out
# BfrB [4] = molecular target: T1, BfrB (Pseudomonas aeruginosa, UniProt Q9HY79); assay: STD NMR fragment screening with Bfd competitive displacement; type: binding; settings: STD NMR with Bfd as specific competitor
# Description: Fragment Library Screening Using Saturation Transfer Difference (STD) NMR Spectroscopy
# Structural information obtained from the BfrB-Bfd complex was used to design a fragment library to screen for molecules that bind BfrB at the Bfd-binding site. […] In addition, fragments capable of π-π stacking were included with both electron rich and deficient aromatic rings. To screen the library in search of fragments that bind BfrB at the Bfd-binding site a competition assay was developed that utilizes saturation transfer difference (STD) NMR spectroscopy. This technique is ideally suited to screen fragments that bind to the large BfrB (˜440 kDa) because protein resonance assignments are not necessary and very low protein concentrations are required. In addition, the large rotational correlation time (τc) of BfrB enhances spin diffusion and therefore saturation transfer within the protein and to the ligand.^51 Two solutions were prepared for each fragment: a solution of the fragment alone, and a solution of the fragment and BfrB. Three spectra were obtained for each fragment. The ^1H spectrum of the fragment alone was used to determine fragment integrity and solubility, the ^1H spectrum of the fragment in the presence of BfrB was used to corroborate that fragment integrity and solubility is not affected by BfrB, and the STD spectrum of the solution containing the fragment and BfrB was used to assess fragment binding. This strategy uncovered 18 compounds that bind BfrB. The specificity criterion for fragment binders, however, is that these bind BfrB specifically at the Bfd-binding site. To eliminate non-specific binders, a displacement strategy was implemented that utilizes Bfd as a specific competitor. For this purpose, a STD spectrum was acquired from a solution containing fragment, BfrB and Bfd. […] These fragments were advanced to the next stage, which was focused on uncovering structural information of fragment binding.
# [5] = test system: ΔbfrB P. aeruginosa cells; assay: Growth response of bfrB deletion mutant cells to analog; type: cell-based, Pseudomonas aeruginosa; settings: M63 + 4 μM Fe; 15 h post-inoculation; viable cells vs untreated control
# Protocol: (§2) To this end, wild type and ΔbfrB cells were cultured in M63 media supplemented with 4 μM Fe, in the presence of different concentrations of analog. […] Since BfrB is not essential, it is likely that the cell can compensate for the absence of the iron storage protein. […] The sudden onset of toxicity observed in the second phase, which is not observed with the wild type cells, is probably related to off-target effects that expose a fitness vulnerability caused by the absence of BfrB. Consequently, it is possible to conclude that the dose-dependent growth defect elicited by 11 or 16 on wild type P. aeruginosa cells is largely a consequence of the interaction between the small molecule inhibitors and BfrB in the bacterial cell. This issue was investigated in additional detail (see below) by probing the phenotypic and biochemical response of wild type cells treated with the small molecule inhibitors.
# [6] = test system: wild type P. aeruginosa cells; assay: Growth response of wild type cells to analog (viable cell count); type: cell-based, Pseudomonas aeruginosa; settings: M63 + 4 μM Fe; 15 h post-inoculation; viable cells vs untreated control
# Protocol: as §2
# apo-BfrB = apo-BfrB (Pseudomonas aeruginosa, UniProt Q9HY79); assay: Fluorescence polarization binding assay, apo-BfrB titrated into fluorescent ligand; settings: fluorescence polarization and intensity near emission λmax
# Protocol: Prior to testing the effect that the 4-substituted isoindoline-1,3-dione derivatives might exert on P. aeruginosa cells, the strength of their interaction with BfrB was evaluated in vitro with a fluorescence polarization assay developed based on the intrinsic fluorescence of the isoindoline-1,3-dione moiety.
# A. baumannii cells = assay: CAS assay for siderophore detection; type: cell-based, Acinetobacter baumannii; settings: analog 64 μM; modified M63 media; 35° C.
# Protocol: These experiments were carried out in 48 well-plates in a Synergy H1 microplate spectrophotometer as described above for obtaining A. baumannii growth curves. Cultures treated with analog KM-5-25 at 64 μM final concentration were used in these experiments. The cell-free supernatants (25 μL) collected after the 24-h growth curves had been completed was mixed with 175 μL of the CAS assay reagent (10 mM hexadecyltrimethyl ammonium bromide (HDTMA), 1 mM FeCl3·6H2O, 2 mM azurol S-CAS in 145 mM PIPES buffer, pH 5.9).^64 The absorbance at 630 nm was read in an Epoch2 microplate spectrophotometer after 2 h and used to calculate the percent siderophore (PSU) with the aid of equation 3,^65 where Ar is the absorbance of the reference solution (CAS solution and un-inoculated media) and As is the absorbance of the sample (CAS solution and cell-free supernatant). PSU values were normalized to CFU/mL.
# The results are illustrated in FIGS. 8A and 8B with observations made when A. baumannii cells are cultured at 35° C. in modified M63 media treated with analogs KM-5-25 and KM-5-35.
# P. aeruginosa PAO1 = assay: Effect of analogs on the potency of fluoroquinolone antibiotics, strain PAO1; type: cell-based, Pseudomonas aeruginosa; settings: data not shown
# Protocol: The combined treatment was carried out similarly, ensuring that the final concentration of DMSO was 2%.
# P. aeruginosa [7] = settings: literature value; cited from earlier work
# BfrB [8] = molecular target: T1, BfrB; assay: Bfd association with BfrB in solution; type: binding; settings: apo-BfrB; read-out: Kd, interaction between Bfd and apo-BfrB
# BfrB [9] = molecular target: T1, BfrB; settings: holo-BfrB; previously reported; read-out: Kd, interaction between Bfd and BfrB (holo); cited from earlier work
# T1 sequence (Q9HY79 whole entry, the tested form may be a part): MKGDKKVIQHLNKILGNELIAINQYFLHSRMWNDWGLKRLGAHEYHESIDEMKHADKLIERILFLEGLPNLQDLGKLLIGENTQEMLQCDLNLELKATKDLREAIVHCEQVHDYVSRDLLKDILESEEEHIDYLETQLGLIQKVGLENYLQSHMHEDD
# Sequence of apo-BfrB (Q9HY79 whole entry): as the sequence (Q9HY79 whole entry, the tested form may be a part) above
molecule,measurement,setting,value
"4-((3-(4-Chloro-2-hydroxyphenyl)propyl)amino)isoindoline-1,3-dione [KM-5-66]",IC50,P. aeruginosa [1],48 µM
same,IC50,A. baumannii [2],< 32 µM
same,A. baumannii MIC,A. baumannii [3],80 to 128 µM
Cc1cc(NS(=O)(=O)c2ccc(N)cc2)no1 [4-amino-N—(S-methylisoxazol-3-yl)benzenesulfonamide],"fragment binding to BfrB, STD signal displaced by Bfd",BfrB [4],bind at the Bfd-binding site
Brc1cccc(-c2nnn[nH]2)c1 [5-(3-bromophenyl)-1H-tetrazole],"fragment binding to BfrB, STD signal displaced by Bfd",BfrB [4],bind at the Bfd-binding site
"O=C1NC(=O)c2cc(O)ccc21 [5-hydroxyisoindoline-1,3-dione]","fragment binding to BfrB, STD signal displaced by Bfd",BfrB [4],bind at the Bfd-binding site
"CC(=O)c1ccc2c(c1)NC(=O)CO2 [6-acetyl-2H-benzo[b][1,4]oxazin-3(4H)-one]","fragment binding to BfrB, STD signal displaced by Bfd",BfrB [4],bind at the Bfd-binding site
"Nc1cccc2c1C(=O)NC2=O [Analog 8, reference compound]",P. aeruginosa IC50,P. aeruginosa [1],Not active
"O=C1NC(=O)c2c(NCc3ccccc3O)cccc21 [Analog 11, 4-((2-Hydroxybenzyl)amino)isoindoline-1,3-dione]",IC50,P. aeruginosa [1]; Pseudomonas aeruginosa,258 µM
same,growth response of ΔbfrB mutant cells,[5],biphasic growth response
same,growth response of wild type cells,[6],monophasic dose-dependent growth defect
"O=C1NC(=O)c2c(NCc3cccc(O)c3)cccc21 [Analog 12, 4-((3-Hydroxybenzyl)amino)isoindoline-1,3-dione]",P. aeruginosa IC50,P. aeruginosa [1],Not active
O=C1NC(=O)c2c(NCCCc3ccc(O)cc3)cccc21 [Analog 13],IC50,P. aeruginosa [1]; Pseudomonas aeruginosa,201 µM
O=C1NC(=O)c2c(NCCCc3ccc(O)cc3O)cccc21 [Analog 14],IC50,P. aeruginosa [1]; Pseudomonas aeruginosa,143 µM
COc1cc(O)ccc1CCCNc1cccc2c1C(=O)NC2=O [Analog 15],IC50,P. aeruginosa [1]; Pseudomonas aeruginosa,227 µM
"O=C1NC(=O)c2c(NCCCc3cc(F)ccc3O)cccc21 [JAG-005-006, 4-((3-(5-Fluoro-2-hydroxyphenyl)propyl)amino)isoindoline-1,3-dione]",IC50,P. aeruginosa [1]; Pseudomonas aeruginosa,48 µM
same,MIC,A. baumannii [3],128 µM
"O=C1NC(=O)c2c(NCc3ccc(Br)cc3O)cccc21 [JAG-005-030, 4-((4-Bromo-2-hydroxybenzyl)amino)isoindoline-1,3-dione]",IC50,A. baumannii [2]; Acinetobacter baumannii,48 µM
same,MIC,A. baumannii [3],80 to 128 µM
"O=C1NC(=O)c2c(NCc3cc(Cl)ccc3O)cccc21 [KM-5-25, 4-((5-Chloro-2-hydroxybenzyl)amino)isoindoline-1,3-dione]",Kd,apo-BfrB,2.9 ± 1.9 µM
same,IC50,P. aeruginosa [1]; Pseudomonas aeruginosa,64 µM
same,IC50,A. baumannii [2]; Acinetobacter baumannii,64 µM
same,MIC,A. baumannii [3],128 µM
same,"siderophores produced relative to untreated control, normalized to CFU/mL",A. baumannii cells,approximately 2 fold
"O=C1NC(=O)c2c(NCc3cc(Br)ccc3O)cccc21 [KM-5-35, 4-((5-Bromo-2-hydroxybenzyl)amino)isoindoline-1,3-dione]",Kd,apo-BfrB,2 ± 1.4 µM
same,IC50,P. aeruginosa [1]; Pseudomonas aeruginosa,48 µM
same,IC50,A. baumannii [2]; Acinetobacter baumannii,64 µM
same,MIC,A. baumannii [3],80 to 128 µM
same,"siderophores produced relative to untreated control, normalized to CFU/mL",A. baumannii cells,approximately 2 fold
CC(=O)Nc1ccc(Br)cc1 [N-(4-bromophenyl)acetamide],"fragment binding to BfrB, STD signal displaced by Bfd",BfrB [4],bind at the Bfd-binding site
CS(=O)(=O)Nc1ccc(C#N)cc1 [N-(4-cyanophenyl)methanesulfonamide],"fragment binding to BfrB, STD signal displaced by Bfd",BfrB [4],bind at the Bfd-binding site
"CC(C)(O/N=C(\C(=O)N[C@@H]1C(=O)N2C(C(=O)[O-])=C(C[n+]3ccccc3)CS[C@H]12)c1csc(N)n1)C(=O)O [ceftazidime, reference compound]",enhancement of antibacterial activity in combination with the small molecule inhibitors of the BfrB-Bfd interaction,P. aeruginosa PAO1,no enhancement
O=C(O)c1cn(C2CC2)c2cc(N3CCNCC3)c(F)cc2c1=O [ciprofloxacin],reported MIC,P. aeruginosa [7],0.25 µg/mL
CCn1cc(C(=O)O)c(=O)c2cc(F)c(N3CCNCC3)cc21 [norfloxacin],reported MIC,P. aeruginosa [7],0.9 µg/mL
"NC[C@H]1O[C@H](O[C@H]2[C@H](O)[C@@H](O[C@H]3O[C@H](CO)[C@@H](O)[C@H](N)[C@H]3O)[C@H](N)C[C@@H]2N)[C@H](N)C[C@@H]1O [tobramycin, reference compound]",enhancement of antibacterial activity in combination with the small molecule inhibitors of the BfrB-Bfd interaction,P. aeruginosa PAO1,no enhancement
gentamycin [reference compound],enhancement of antibacterial activity in combination with the small molecule inhibitors of the BfrB-Bfd interaction,P. aeruginosa PAO1,no enhancement
B1,Kd,BfrB [8],3.1 µM
same,Kd,BfrB [9],3.4 µM and 3 µM and ~3 µM
